For assay [1], the target named is D(1B) dopamine receptor (Homo sapiens, UniProt P21918). The assay is described as follows: Displacement of [3H]-SCH23390 from recombinant human D5 receptor transiently expressed in HEKT cell membranes measured after 90 mins by microbeta scintillation counting method.
Assay [2] has as its target D(2) dopamine receptor (Homo sapiens, UniProt P14416). Briefly: Displacement of [3H]-N-methylspiperone from recombinant human D2 receptor stably expressed in fibroblast cell membranes measured after 90 mins by microbeta scintillation counting method.
Assay [3] deals with T1, D(4) dopamine receptor (Homo sapiens, UniProt P21917).
T1 sequence (P21917 whole entry): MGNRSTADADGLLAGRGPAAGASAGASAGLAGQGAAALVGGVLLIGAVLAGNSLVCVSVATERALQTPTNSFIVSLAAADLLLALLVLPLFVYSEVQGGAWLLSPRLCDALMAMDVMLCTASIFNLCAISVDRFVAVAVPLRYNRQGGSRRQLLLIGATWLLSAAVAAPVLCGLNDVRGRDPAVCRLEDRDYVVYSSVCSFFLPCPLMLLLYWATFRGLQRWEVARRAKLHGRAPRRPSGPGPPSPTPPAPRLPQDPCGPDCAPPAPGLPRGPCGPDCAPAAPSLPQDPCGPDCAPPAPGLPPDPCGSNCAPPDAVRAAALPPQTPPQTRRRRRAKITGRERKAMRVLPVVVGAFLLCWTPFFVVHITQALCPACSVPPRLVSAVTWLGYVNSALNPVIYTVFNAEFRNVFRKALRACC
Briefly: Displacement of [3H]-N-methylspiperone from recombinant human D4 receptor stably expressed in HEK cell membranes measured after 90 mins by microbeta scintillation counting method.

The target of assay [4] is D(3) dopamine receptor (Homo sapiens, UniProt P35462). The assay is described as follows: Displacement of [3H]-N-methylspiperone from recombinant human D3 receptor (unknown origin) measured after 90 mins by microbeta scintillation counting method.
Sequence of D(3) dopamine receptor (P35462 whole entry): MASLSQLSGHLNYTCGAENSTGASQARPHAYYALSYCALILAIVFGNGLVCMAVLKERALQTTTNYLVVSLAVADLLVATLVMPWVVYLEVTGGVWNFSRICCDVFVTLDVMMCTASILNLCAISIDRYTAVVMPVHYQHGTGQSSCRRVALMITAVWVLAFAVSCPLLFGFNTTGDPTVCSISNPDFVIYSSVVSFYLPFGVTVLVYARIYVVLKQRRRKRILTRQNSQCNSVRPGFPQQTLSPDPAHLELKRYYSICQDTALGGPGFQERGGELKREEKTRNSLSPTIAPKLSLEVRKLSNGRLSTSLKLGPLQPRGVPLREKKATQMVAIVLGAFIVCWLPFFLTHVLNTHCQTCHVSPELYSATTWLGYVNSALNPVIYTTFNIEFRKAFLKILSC
The target of assay [5] is D(1A) dopamine receptor (Homo sapiens, UniProt P21728). The assay is described as follows: Displacement of [3H]-SCH23390 from recombinant human D1 receptor transiently expressed in HEKT cell membranes measured after 90 mins by microbeta scintillation counting method.
Sequence of D(1A) dopamine receptor (P21728 whole entry): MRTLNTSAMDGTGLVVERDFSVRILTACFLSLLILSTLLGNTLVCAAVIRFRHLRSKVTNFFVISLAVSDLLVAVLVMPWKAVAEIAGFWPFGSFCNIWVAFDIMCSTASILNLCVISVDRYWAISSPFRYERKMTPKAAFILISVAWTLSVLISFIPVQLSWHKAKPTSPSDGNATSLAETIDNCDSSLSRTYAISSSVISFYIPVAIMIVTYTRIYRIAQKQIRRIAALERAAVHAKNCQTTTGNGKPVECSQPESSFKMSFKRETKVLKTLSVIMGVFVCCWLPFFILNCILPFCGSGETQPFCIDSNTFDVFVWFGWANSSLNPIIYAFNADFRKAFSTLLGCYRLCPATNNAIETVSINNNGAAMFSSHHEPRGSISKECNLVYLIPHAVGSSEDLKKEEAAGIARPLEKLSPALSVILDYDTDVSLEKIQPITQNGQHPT
The target in assay [6] is T2, 5-hydroxytryptamine receptor 2C (Homo sapiens, UniProt P28335).
T2 sequence (P28335 whole entry): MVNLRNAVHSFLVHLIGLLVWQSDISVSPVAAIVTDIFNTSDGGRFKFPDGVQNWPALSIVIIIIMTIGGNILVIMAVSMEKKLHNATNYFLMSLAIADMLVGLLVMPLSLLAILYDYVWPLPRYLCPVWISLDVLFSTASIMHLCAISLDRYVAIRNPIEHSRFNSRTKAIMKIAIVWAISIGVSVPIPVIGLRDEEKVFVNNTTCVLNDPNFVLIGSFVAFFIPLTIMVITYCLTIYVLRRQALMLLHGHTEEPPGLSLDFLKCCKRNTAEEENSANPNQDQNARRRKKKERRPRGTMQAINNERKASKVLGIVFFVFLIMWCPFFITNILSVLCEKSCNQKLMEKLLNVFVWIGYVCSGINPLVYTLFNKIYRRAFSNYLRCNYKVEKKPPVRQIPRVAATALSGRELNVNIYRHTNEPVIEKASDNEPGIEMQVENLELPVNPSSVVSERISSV
The assay is described as follows: Displacement of [3H]-Mesulergine from recombinant human 5HT2C receptor expressed in HEKT cell membranes measured after 90 mins by microbeta scintillation counting method.

Each structure is given as a SMILES string. pKi: −log10 of the molar value.

Sequence of D(2) dopamine receptor (P14416 whole entry): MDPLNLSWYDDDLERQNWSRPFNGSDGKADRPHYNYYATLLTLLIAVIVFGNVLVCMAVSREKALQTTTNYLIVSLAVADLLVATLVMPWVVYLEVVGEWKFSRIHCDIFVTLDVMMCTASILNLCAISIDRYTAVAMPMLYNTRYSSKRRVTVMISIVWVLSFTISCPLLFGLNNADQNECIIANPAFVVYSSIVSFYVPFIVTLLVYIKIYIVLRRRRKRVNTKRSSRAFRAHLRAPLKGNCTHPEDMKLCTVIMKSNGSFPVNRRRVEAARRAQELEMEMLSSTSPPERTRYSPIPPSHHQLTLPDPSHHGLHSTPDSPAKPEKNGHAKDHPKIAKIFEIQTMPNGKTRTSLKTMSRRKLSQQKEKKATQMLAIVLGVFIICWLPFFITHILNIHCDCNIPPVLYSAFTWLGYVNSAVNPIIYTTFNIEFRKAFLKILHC
Sequence of D(1B) dopamine receptor (P21918 whole entry): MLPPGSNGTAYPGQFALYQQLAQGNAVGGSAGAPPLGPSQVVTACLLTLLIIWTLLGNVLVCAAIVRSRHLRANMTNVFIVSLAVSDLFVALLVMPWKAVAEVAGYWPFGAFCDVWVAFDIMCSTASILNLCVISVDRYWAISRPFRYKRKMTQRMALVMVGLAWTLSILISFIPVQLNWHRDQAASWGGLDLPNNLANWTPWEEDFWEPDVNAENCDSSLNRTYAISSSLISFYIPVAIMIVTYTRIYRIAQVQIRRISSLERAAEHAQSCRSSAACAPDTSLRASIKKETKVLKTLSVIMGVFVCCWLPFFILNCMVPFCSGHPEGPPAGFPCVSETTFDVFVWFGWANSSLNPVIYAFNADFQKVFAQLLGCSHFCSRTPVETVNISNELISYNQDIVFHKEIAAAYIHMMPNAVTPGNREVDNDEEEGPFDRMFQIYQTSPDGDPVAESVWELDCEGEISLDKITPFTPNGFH

Turning to `CCCN(CCCCNC(=O)c1cc2ccccc2[nH]1)CC1CC1c1cc(Cl)ccc1OC` (configuration not stated), the pKi is 5.37 in assay [1]; 5.85 in assay [2]; 6.24 in assay [3]; 7.94 in assay [4]; 6.09 in assay [5]; 7.07 in assay [6].
In the case of `CCCN(CCCCNC(=O)c1ccc2ccccc2c1)CC1CC1c1ccc(C(F)(F)F)cc1` (configuration not stated), the pKi in assay [1] was 5.24; in assay [2], less than 5.30; in assay [3] it was 6.67; in assay [4], 7.37; in assay [5], 5.77; in assay [6], 5.90.
Regarding `CCCN(CCCCNC(=O)c1ccc(-c2ccccn2)cc1)CC1CC1c1ccc(Cl)cc1` (configuration not stated), the pKi in assay [1] was 5.05; in assay [2] it was less than 5.30; in assay [3] it was 5.85; in assay [4] it was 7.75; in assay [5], 5.88; in assay [6] it was 6.55.
Take `CCCN(CCCCNC(=O)c1cc2ccccc2[nH]1)CC1CC1c1ccc(Cl)cc1` (configuration not stated): the pKi in assay [1] is 5.03; in assay [2] it was 5.50; in assay [3], 6.29; in assay [4], 7.59; in assay [5] it was 6.19; in assay [6] it was 6.86.
For the molecule `CCCN(CCCCNC(=O)c1ccc(-c2ccccn2)cc1)CC1CC1c1cc(Cl)ccc1OC` (configuration not stated), the negative-log Ki (pKi) in assay [1] is less than 5.30; in assay [2] it was 5.68; in assay [3] it was 5.74; in assay [4], 7.40; in assay [5], less than 5.30; in assay [6], 6.87.
With `CCCN(CCCCNC(=O)c1ccc2ccccc2c1)CC1CC1c1cccc(Cl)c1` (configuration not stated), the pKi is 5.06 in assay [1]; 5.40 in assay [2]; 5.88 in assay [3]; 7.81 in assay [4]; 6.03 in assay [5]; 6.87 in assay [6].
Consider `CCCN(CCCCNC(=O)c1cc2ccccc2[nH]1)CC1CC1c1ccc(F)cc1` (configuration not stated), for which the pKi in assay [1] is 4.98; in assay [2], 5.23; in assay [3], 5.79; in assay [4] it was 7.34; in assay [5], 5.84; in assay [6], 6.66.
On to `COc1ccc(F)cc1C1CC1CN(CCCSc1nnc(-c2ccccc2)n1C)C(C)C` (configuration not stated), for which the pKi in assay [1] is less than 5.30; in assay [2], 6.29; in assay [3] it was 6.49; in assay [4], 6.98; in assay [5], less than 5.30; in assay [6], 6.31.
Regarding `CCCN(CCCCNC(=O)c1cc2ccccc2[nH]1)CC1CC1c1cccc(F)c1` (configuration not stated), the pKi in assay [1] is less than 5.30; in assay [2] it was 5.46; in assay [3], 6.17; in assay [4] it was 7.73; in assay [5] it was 5.96; in assay [6], 6.97.
With `CCN(CCCCNC(=O)c1ccc2ccccc2c1)CC1CC1c1cc(F)ccc1OC` (configuration not stated), the negative-log Ki (pKi) in assay [1] was 5.76; in assay [2] it was 6.39; in assay [3], 6.41; in assay [4] it was 7.82; in assay [5], 6.01; in assay [6] it was 7.24.
With `CCN(CCCCNC(=O)c1cc2ccccc2[nH]1)CC1CC1c1cc(F)ccc1OC` (configuration not stated), the negative logarithm of the Ki (pKi) was less than 5.30 in assay [1]; 6.42 in assay [2]; 6.66 in assay [3]; 7.63 in assay [4]; 5.96 in assay [5]; 7.31 in assay [6].
`CCCN(CCCCNC(=O)c1cc2ccccc2[nH]1)CC1CC1c1ccc(C(F)(F)F)cc1` (configuration not stated): the pKi in assay [1] was 5.09; in assay [2], less than 5.30; in assay [3], 5.68; in assay [4], 7.48; in assay [5], 5.89; in assay [6], 5.88.
Consider `CCCN(CCCSc1nnc(-c2ccccc2)n1C)CC1CC1c1cc(F)ccc1OC` (configuration not stated), for which the pKi in assay [1] is less than 5.30; in assay [2] it was 5.94; in assay [3], 7.07; in assay [4], 7.06; in assay [5], 5.78; in assay [6] it was 6.38.
Take `CCCN(CCCCNC(=O)c1ccc(-c2ccccn2)cc1)CC1CC1c1ccc(F)cc1` (configuration not stated): the pKi in assay [1] was less than 5.30; in assay [2] it was less than 5.30; in assay [3], 5.54; in assay [4] it was 6.97; in assay [5] it was 5.44; in assay [6], 5.66.
For the molecule `COc1ccc(F)cc1C1CC1CN(CCCSc1nnc(-c2ccccc2)n1C)CC1CC1` (configuration not stated), the pKi is 5.92 in assay [1]; less than 5.30 in assay [2]; 6.54 in assay [3]; 7.19 in assay [4]; 5.97 in assay [5]; 6.90 in assay [6].
`CCN(CCCCNC(=O)c1ccc2ccccc2c1)CC1CC1c1cc(Cl)ccc1OC` (configuration not stated): the pKi in assay [1] was 6.24; in assay [2] it was 6.39; in assay [3], 6.26; in assay [4], 7.63; in assay [5] it was 5.70; in assay [6] it was 7.31.
Consider `CCCN(CCCCNC(=O)c1ccc2ccccc2c1)CC1CC1c1cc(Cl)ccc1OC` (configuration not stated), for which the pKi is 5.96 in assay [1]; 5.95 in assay [2]; 6.02 in assay [3]; 7.57 in assay [4]; 6.03 in assay [5]; 7.07 in assay [6].
Take `CCCN(CCCCNC(=O)c1cc2ccccc2[nH]1)CC1CC1c1cccc(Cl)c1` (configuration not stated): the pKi in assay [1] is less than 5.30; in assay [2], 5.46; in assay [3], 6.06; in assay [4] it was 7.95; in assay [5], 6.00; in assay [6] it was 6.88.
As for `CCCN(CCCCNC(=O)c1ccc2ccccc2c1)CC1CC1c1ccc(F)cc1` (configuration not stated), the pKi in assay [1] was less than 5.30; in assay [2] it was 5.25; in assay [3], 5.66; in assay [4], 7.25; in assay [5] it was 6.00; in assay [6], 6.62.
As to `CCCN(CCCCNC(=O)c1ccc2ccccc2c1)CC1CC1c1ccc(Cl)cc1` (configuration not stated), the pKi in assay [1] was 5.21; in assay [2], 5.34; in assay [3] it was 5.80; in assay [4] it was 7.49; in assay [5], 6.29; in assay [6] it was 6.75.
As for `CCCN(CCCCNC(=O)c1cc2ccccc2[nH]1)CC1CC1c1cc(F)ccc1OC` (configuration not stated), the pKi in assay [1] is 6.10; in assay [2], 6.29; in assay [3], 6.42; in assay [4], 7.95; in assay [5] it was 6.06; in assay [6] it was 7.17.
On to `CCCN(CCCCNC(=O)c1ccc(-c2ccccn2)cc1)CC1CC1c1ccc(C(F)(F)F)cc1` (configuration not stated), for which the pKi in assay [1] is 5.11; in assay [2], less than 5.30; in assay [3], 5.66; in assay [4] it was 7.63; in assay [5], 5.85; in assay [6] it was 5.63.
With `COc1ccc(Cl)cc1C1CC1CN(CCCSc1nnc(-c2ccccc2)n1C)CC1CC1` (configuration not stated), the pKi in assay [1] was less than 5.30; in assay [2], 6.67; in assay [3], 6.79; in assay [4] it was 7.63; in assay [5], 6.20; in assay [6] it was 6.56.
In the case of `CCN(CCCSc1nnc(-c2ccccc2)n1C)CC1CC1c1cc(Cl)ccc1OC` (configuration not stated), the pKi in assay [1] is less than 5.30; in assay [2] it was 6.62; in assay [3] it was 6.62; in assay [4], 7.50; in assay [5], 5.82; in assay [6], 6.69.
With `CCCN(CCCCNC(=O)c1ccc(-c2ccccn2)cc1)CC1CC1c1cccc(Cl)c1` (configuration not stated), the pKi in assay [1] was 5.25; in assay [2], less than 5.30; in assay [3] it was 5.63; in assay [4] it was 7.58; in assay [5], 6.08; in assay [6], 6.05.
In the case of `CCCN(CCCCNC(=O)c1ccc2ccccc2c1)CC1CC1c1cccc(F)c1` (configuration not stated), the pKi in assay [1] is less than 5.30; in assay [2], 5.32; in assay [3], 5.89; in assay [4], 7.57; in assay [5], 5.88; in assay [6], 6.78.
`CCCN(CCCCNC(=O)c1ccc(-c2ccccn2)cc1)CC1CC1c1cccc(F)c1` (configuration not stated): the pKi in assay [1] is less than 5.30; in assay [2], less than 5.30; in assay [3], 5.65; in assay [4], 7.34; in assay [5] it was 5.54; in assay [6], 5.87.
